Assay results published in US20260232666A1, “COMPOSITIONS AND METHODS FOR INHIBITION OF RAS” (TheRas, Inc., priority 2023, published 2026).

The compounds below were run on pERK in NCI-H358 cells (assay: Cell-based pERK HTRF assay (pERK inhibition in H358 cells)). Conditions: Homo sapiens, NCI-H358, 0.5 h, 30 min incubation.
Summary of the method: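 NCI-H358 cells were seeded at 4×10^4 cells/well in RPMI/10% FBS, then treated next day for 30 min at 0.25% DMSO (9-point, 3-fold series from 75 μM). Lysates were read by HTRF (d2/Eu cryptate antibody pair, 615 nm emission) after 4–24 h at room temperature to give pERK IC50.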

SMILES	IC50
C=CC(=O)N1CC[C@@H](N(C)c2nc(OC[C@@H]3C[C@@H](OC)CN3CC)nc3c(F)c(-c4ccc(F)c5sc(N)c(C#N)c45)c(C(F)(F)F)cc23)[C@H]1C [Compound 104]	< 100 nM
C=CC(=O)N1CC[C@@H](N(C)c2nc(OC[C@@H]3C[C@@H](F)CN3CC)nc3c(F)c(-c4ccc(F)c5sc(N)c(C#N)c45)c(Cl)cc23)[C@@H]1C [Compound 105]	< 100 nM
C=CC(=O)N1CCN(c2nc(OC[C@@]34CCCN3C[C@H](F)C4)nc3c(F)c(-c4ccc(F)c5sc(N)c(C#N)c45)c(C(F)(F)F)cc23)C2CC21 (stereo partly drawn) [Compound 106]	< 100 nM
C=CC(=O)N1CC[C@@H](N(C)c2nc(OC[C@@H]3C[C@@H](F)CN3CC)nc3c(F)c(-c4ccc(F)c5sc(N)c(C#N)c45)c(C(F)(F)F)cc23)[C@H]1C [Compound 107]	< 100 nM
C=CC(=O)N1C[C@H](N(C)c2nc(OC[C@@]34CCCN3C[C@H](F)C4)nc3c(F)c(-c4ccc(F)c5sc(N)c(C#N)c45)c(C(F)(F)F)cc23)C[C@@H]1C [Compound 108]	< 100 nM
C=CC(=O)N1C[C@H](N(C)c2nc(OC[C@@]34CCCN3C[C@H](F)C4)nc3cc(-c4ccc(F)c5sc(N)c(C#N)c45)c(F)cc23)C[C@@H]1C [Compound 109]	< 100 nM
C=CC(=O)N1CC[C@@H](N(C)c2nc(OC[C@@]34CCCN3C[C@H](F)C4)nc3cc(-c4nc(N)cc(C)c4C(F)(F)F)c(F)cc23)[C@H]1C [Compound 110]	100 to 1000 nM
C=CC(=O)N1CC[C@@H](N(C)c2nc(OC[C@@]34CCCN3C[C@H](F)C4)nc3c(F)c(-c4nc(N)cc(C)c4C(F)(F)F)ccc23)[C@H]1C [Compound 115]	100 to 1000 nM
C=CC(=O)N1CC[C@@H](N(C)c2nc(OC[C@@H]3CCCN3C)nc3c(F)c(-c4nc(N)cc(C)c4C(F)(F)F)c(C(F)(F)F)cc23)[C@H]1C [Compound 122]	100 to 1000 nM
C=CC(=O)N1C[C@@H](C)N(c2nc(OC[C@@]34CCCN3C[C@H](F)C4)nc3c(F)c(-c4ccc(F)c5sc(N)c(C#N)c45)c(C(F)(F)F)cc23)C[C@@H]1C [Compound 124]	< 100 nM
C=CC(=O)N1CC[C@@H](N(CC)c2nc(OC[C@@H]3CCCN3C)nc3cc(-c4ccc(F)c5sc(N)c(C#N)c45)c(F)cc23)[C@H]1C [Compound 138]	< 100 nM
C=CC(=O)N1CC[C@@H](N(CC)c2nc(OC[C@@H]3C[C@@H](F)CN3C)nc3cc(-c4ccc(F)c5sc(N)c(C#N)c45)c(F)cc23)[C@H]1C [Compound 139]	100 to 1000 nM
C=CC(=O)N1CC[C@@H](N(CC)c2nc(OC[C@@H]3C[C@@H](OC)CN3C)nc3cc(-c4ccc(F)c5sc(N)c(C#N)c45)c(F)cc23)[C@H]1C [Compound 140]	< 100 nM
C=CC(=O)N1CC[C@@H](N(CC)c2nc(OC[C@@H]3CCCN3C)nc3c(F)c(-c4ccc(F)c5sc(N)c(C#N)c45)ccc23)[C@H]1C [Compound 141]	< 100 nM
C=CC(=O)N1CC[C@@H](N(CC)c2nc(OC[C@@H]3C[C@@H](F)CN3C)nc3c(F)c(-c4ccc(F)c5sc(N)c(C#N)c45)ccc23)[C@H]1C [Compound 142]	< 100 nM
C=CC(=O)N1CC[C@@H](N(C)c2nc(OC[C@@H]3C[C@@H](F)CN3CC)nc3c(F)c(-c4ccc(F)c5sc(N)c(C#N)c45)c(C(F)(F)F)cc23)[C@@H]1C [Compound 144]	< 100 nM
C=CC(=O)N1CC[C@@H](N(C)c2nc(OC[C@@H]3C[C@@H](F)CN3C)nc3c(F)c(-c4nc(N)cc(C)c4C(F)(F)F)c(C(F)(F)F)cc23)[C@H]1C [Compound 145]	100 to 1000 nM
C=CC(=O)N1C[C@H](N(C)c2nc(OC[C@@H]3CCCN3C)nc3c(F)c(-c4ccc(F)c5sc(N)c(C#N)c45)c(C(F)(F)F)cc23)C[C@H]1C [Compound 147]	< 100 nM

The compounds below were run against T1, GppNHp-loaded KRAS4b (amino acids 1-169) G12C/C118S protein (Homo sapiens, UniProt P01116, C118S/G12C) (assay: Covalent cysteine 12 modification by MALDI-TOF MS, GppNHp-loaded KRAS G12C). Conditions: 15 minutes reaction time point.
T1 construct: KRAS4b (amino acids 1-169) G12C/C118S protein; made in house
Format: binding
Summary of the method: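 With several adducts, each species' height is expressed as a fraction of all observed protein peaks, scored on linear-mode spectra. Reactions run at pH 7.3 (HEPES, 150 mM NaCl, 1 mM MgCl2), using 1 μM protein and a 1:2.5 protein:compound ratio, and are sampled after 15 minutes in the dark.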

SMILES	GppNHp-KRAS G12C percent of modification
C=CC(=O)N1CC[C@@H](N(C)c2nc(OC[C@@H]3C[C@@H](OC)CN3CC)nc3c(F)c(-c4ccc(F)c5sc(N)c(C#N)c45)c(C(F)(F)F)cc23)[C@H]1C [Compound 104]	A (percent of modification ≥70%)
C=CC(=O)N1CC[C@@H](N(C)c2nc(OC[C@@H]3C[C@@H](F)CN3CC)nc3c(F)c(-c4ccc(F)c5sc(N)c(C#N)c45)c(Cl)cc23)[C@@H]1C [Compound 105]	A (percent of modification ≥70%)
C=CC(=O)N1CCN(c2nc(OC[C@@]34CCCN3C[C@H](F)C4)nc3c(F)c(-c4ccc(F)c5sc(N)c(C#N)c45)c(C(F)(F)F)cc23)C2CC21 (stereo partly drawn) [Compound 106]	A (percent of modification ≥70%)
C=CC(=O)N1CC[C@@H](N(C)c2nc(OC[C@@H]3C[C@@H](F)CN3CC)nc3c(F)c(-c4ccc(F)c5sc(N)c(C#N)c45)c(C(F)(F)F)cc23)[C@H]1C [Compound 107]	A (percent of modification ≥70%)
C=CC(=O)N1C[C@H](N(C)c2nc(OC[C@@]34CCCN3C[C@H](F)C4)nc3c(F)c(-c4ccc(F)c5sc(N)c(C#N)c45)c(C(F)(F)F)cc23)C[C@@H]1C [Compound 108]	A (percent of modification ≥70%)
C=CC(=O)N1C[C@H](N(C)c2nc(OC[C@@]34CCCN3C[C@H](F)C4)nc3cc(-c4ccc(F)c5sc(N)c(C#N)c45)c(F)cc23)C[C@@H]1C [Compound 109]	C (10%≤percent of modification <50%)
C=CC(=O)N1CC[C@@H](N(C)c2nc(OC[C@@]34CCCN3C[C@H](F)C4)nc3cc(-c4nc(N)cc(C)c4C(F)(F)F)c(F)cc23)[C@H]1C [Compound 110]	A (percent of modification ≥70%)
C=CC(=O)N1CC[C@@H](N(C)c2nc(OC[C@@]34CCCN3C[C@H](F)C4)nc3c(F)c(-c4nc(N)cc(C)c4C(F)(F)F)ccc23)[C@H]1C [Compound 115]	A (percent of modification ≥70%)
C=CC(=O)N1CC[C@@H](N(C)c2nc(OC[C@@H]3CCCN3C)nc3c(F)c(-c4nc(N)cc(C)c4C(F)(F)F)c(C(F)(F)F)cc23)[C@H]1C [Compound 122]	A (percent of modification ≥70%)
C=CC(=O)N1C[C@@H](C)N(c2nc(OC[C@@]34CCCN3C[C@H](F)C4)nc3c(F)c(-c4ccc(F)c5sc(N)c(C#N)c45)c(C(F)(F)F)cc23)C[C@@H]1C [Compound 124]	C (10%≤percent of modification <50%)
C=CC(=O)N1CC[C@@H](N(CC)c2nc(OC[C@@H]3CCCN3C)nc3cc(-c4ccc(F)c5sc(N)c(C#N)c45)c(F)cc23)[C@H]1C [Compound 138]	A (percent of modification ≥70%)
C=CC(=O)N1CC[C@@H](N(CC)c2nc(OC[C@@H]3C[C@@H](F)CN3C)nc3cc(-c4ccc(F)c5sc(N)c(C#N)c45)c(F)cc23)[C@H]1C [Compound 139]	A (percent of modification ≥70%)
C=CC(=O)N1CC[C@@H](N(CC)c2nc(OC[C@@H]3C[C@@H](OC)CN3C)nc3cc(-c4ccc(F)c5sc(N)c(C#N)c45)c(F)cc23)[C@H]1C [Compound 140]	A (percent of modification ≥70%)
C=CC(=O)N1CC[C@@H](N(CC)c2nc(OC[C@@H]3CCCN3C)nc3c(F)c(-c4ccc(F)c5sc(N)c(C#N)c45)ccc23)[C@H]1C [Compound 141]	A (percent of modification ≥70%)
C=CC(=O)N1CC[C@@H](N(CC)c2nc(OC[C@@H]3C[C@@H](F)CN3C)nc3c(F)c(-c4ccc(F)c5sc(N)c(C#N)c45)ccc23)[C@H]1C [Compound 142]	A (percent of modification ≥70%)
C=CC(=O)N1CC[C@@H](N(C)c2nc(OC[C@@H]3C[C@@H](F)CN3CC)nc3c(F)c(-c4ccc(F)c5sc(N)c(C#N)c45)c(C(F)(F)F)cc23)[C@@H]1C [Compound 144]	C (10%≤percent of modification <50%)
C=CC(=O)N1CC[C@@H](N(C)c2nc(OC[C@@H]3C[C@@H](F)CN3C)nc3c(F)c(-c4nc(N)cc(C)c4C(F)(F)F)c(C(F)(F)F)cc23)[C@H]1C [Compound 145]	B (50≤percent of modification <70%)
C=CC(=O)N1C[C@H](N(C)c2nc(OC[C@@H]3CCCN3C)nc3c(F)c(-c4ccc(F)c5sc(N)c(C#N)c45)c(C(F)(F)F)cc23)C[C@H]1C [Compound 147]	A (percent of modification ≥70%)
